These are literature values, as cited in patent publication US20080069870A1, “Controlled Release Compositions Comprising a Cephalosporin for the Treatment of a Bacterial Infection” (Elan Corporation Pic, priority 2005, published 2008).

Like-named read-outs stand apart in the source and are kept apart here.

For data set [1] the following is noted: oral administration, after meals vs before meals.

Regarding `CC/C=C(\C(=O)N[C@@H]1C(=O)N2C(C(=O)OCOC(=O)C(C)(C)C)=C(COC(N)=O)CS[C@H]12)c1csc(N)n1.Cl` [CFPN-PI, 2,2-Dimethylpropanoyloxymethyl (6R, 7R)-7-[(Z)-2-(2-aminothiazol-4-yl)pent-2-enylamino]-3-carabmoyloxymethyl-8-oxo-5-thia-1-azabicyclo[4.2.0]oct-2-ene-2-carboxylate monohydrochoride monohydrate], the solubility entry reads like this: (in N, N-dimethylformamide) “freely soluble”; (in diethyl ether) “practically insoluble”; (in ethanol) “sparingly soluble”; (in methanol) “freely soluble”; (in water) “only slightly soluble”. Besides, the absorption result in data set [1] is reported as “better after meals than before meals”.
